The results in this text go back to US5292887A, “Substituted imidazole derivatives and their preparation and use” (priority 1988, dated 1994).

The target in assay [1] is T1, α2-adrenoceptor (Rattus norvegicus, UniProt P22909).
T1 construct: In anaesthetized rat, a standard dose of detomidine was administered intravenously; from tissue; host or cells: whole anaesthetized rat (pupil response, in vivo)
T1 sequence (P22909 1-465): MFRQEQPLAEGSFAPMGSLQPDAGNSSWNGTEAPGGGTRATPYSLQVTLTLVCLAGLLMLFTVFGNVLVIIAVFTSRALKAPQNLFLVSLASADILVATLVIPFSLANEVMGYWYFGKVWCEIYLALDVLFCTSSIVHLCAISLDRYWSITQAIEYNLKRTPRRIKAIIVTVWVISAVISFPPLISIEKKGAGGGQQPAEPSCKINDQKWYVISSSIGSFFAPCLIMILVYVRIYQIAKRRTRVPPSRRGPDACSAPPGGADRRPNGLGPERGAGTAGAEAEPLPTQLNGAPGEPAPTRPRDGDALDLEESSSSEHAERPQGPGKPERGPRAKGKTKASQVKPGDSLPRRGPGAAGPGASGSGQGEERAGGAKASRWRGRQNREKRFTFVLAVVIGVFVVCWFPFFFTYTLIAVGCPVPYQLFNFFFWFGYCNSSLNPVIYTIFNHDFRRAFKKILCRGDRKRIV
Briefly: Duration of the α2-blocking action (time for antagonism of detomidine mydriasis to fall by half, oral). The assay is classed as in vivo. Conditions: oral at equipotent doses, time taken for antagonism of 0,1 mg/kg detomidine mydriasis to fall by half. As for the experimental part: It is known that in the rat α2 -agonists induce dilatation of the pupil (mydriasis) which effect is transmitted via postsynaptic α2 -receptors. In anaesthetized rat, a standard dose of detomidine was administered intravenously. Thereafter increasing doses of the studied antagonist were injected intravenously and the reversal of detomidine-induced mydriasis was followed. The ED50 value of the antagonist, i.e. the dose producing a 50 per cent reversal, was determined.
The duration of the α2 -blocking action of the compounds was determined as follows: the antagonists were administered orally at eqvipotent doses to groups of 4 rats 1, 2, 4, 7 or 16 hours before induction of anaesthesia and challenge with cumulative i.v. dosing of detomidine. By calculating the percentage antagonism of the mydriatic effect of 0,1 mg/kg detomidine for each pretreatment group, a time-effect relationship was established. This in turn permitted the measurement of the time taken for the antagonist effect to fall by half.

The next assay concerns the target T2, α1-adrenoceptor (Rattus norvegicus, UniProt P43140).
T2 sequence (P43140 1-466): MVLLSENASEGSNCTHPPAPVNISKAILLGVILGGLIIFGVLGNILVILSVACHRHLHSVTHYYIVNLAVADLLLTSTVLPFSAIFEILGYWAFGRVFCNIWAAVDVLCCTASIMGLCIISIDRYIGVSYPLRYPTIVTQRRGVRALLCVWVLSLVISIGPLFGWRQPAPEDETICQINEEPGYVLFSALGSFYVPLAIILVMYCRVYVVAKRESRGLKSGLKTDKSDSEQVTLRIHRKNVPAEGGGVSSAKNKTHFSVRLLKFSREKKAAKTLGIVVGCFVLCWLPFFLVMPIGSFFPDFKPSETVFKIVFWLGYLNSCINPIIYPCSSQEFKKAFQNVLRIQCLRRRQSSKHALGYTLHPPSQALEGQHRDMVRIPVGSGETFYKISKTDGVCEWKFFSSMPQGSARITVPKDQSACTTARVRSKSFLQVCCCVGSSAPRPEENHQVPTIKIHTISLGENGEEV
Briefly: α1-adrenoceptor antagonism, phenylephrine-induced contraction of isolated anococcygeus muscle. The following applies: vs phenylephrine, read-out: α1-antagonism (pA2 vs phenylephrine) (converted). As to the method:
2. α1 -adrenoceptor antagonism
To obtain information also on the selectivity of the antagonist between α1 - and α2 -receptors, its ability to inhibit α1 -receptors was determined by means of isolated anococcygeus muscle (rat). The reference substances were now phenylephrine, a known α1 -agonist, and prazosin, a known α1 -antagonist. To determine α1 -antagonism, muscular contraction was induced by phenylephrine and the pA2 value of the studied compound was determined (Arunlakshana & Schild, Br. J. Pharmacol. 14, 48-62, 1959).

Assay [2] deals with isolated rat pancreas (postsynaptic α2-adrenoceptors). Nature of the assay: Potentiation of insulin release from isolated perfused pancreas. Also on record: species or system rat (Sprague-Dawley). The following applies: 1 × 10^-6 M, 11 mM glucose; for Insulin in the perfusate, -5 min: before compound addition. As for the experimental part:
3. Potentiation of insulin release from isolated pancreas
Samples for determination of insulin concentration in the perfusate were collected before and during 30 min after adding the studied compounds+glucose. Insulin was measured by a RIA-kit (NOVO).

The target in assay [3] is T1, α2-adrenoceptor. Briefly: Reversal of detomidine-induced mydriasis in anaesthetized rat (α2-adrenoceptor antagonism). Conditions: dose producing 50 per cent reversal of detomidine-induced mydriasis; for ED50: iv. Type of assay: in vivo.

Molecules are shown by their SMILES.

With `CCC1(c2cnc[nH]2)Cc2ccccc2C1` [atipamezole, reference compound], the “Duration of α2-antagonism” value on α2-adrenoceptor [1] worked out at 1.0 h. In addition, the Kb at α1-adrenoceptor was greater than 10 µM. Moreover, in assay [2], the “Insulin in the perfusate, +1 min” value was 5.0 ng/mL; the “Insulin in the perfusate, +10 min” value was found to be 3.0 ng/mL; the “Insulin in the perfusate, +20 min” value is 6.3 ng/mL; the “Insulin in the perfusate, +30 min” value was determined as 15.1 ng/mL. For the same molecule, the “Insulin in the perfusate, -5 min” value in assay [2] is less than 0.1 ng/mL.
What is called ED50 is the midpoint of the dose-response relation. Take `CCC1(c2cn(C)cn2)Cc2ccccc2C1` [compound 1, 4-(2-ethyl-2,3-dihydro-1H-inden-2-yl)-1-methyl-1H-imidazole]: the “Duration of α2-antagonism” value on α2-adrenoceptor [1] amounted to 2.0 h. Also, the Kb at α1-adrenoceptor is 7.94 µM. At α2-adrenoceptor [3], the ED50 is 0.3 mg/kg.
Regarding `CCn1cnc(C2(CC)Cc3ccccc3C2)c1` [compound 2, 1-ethyl-4-(2-ethyl-2,3-dihydro-1H-inden-2-yl)-1H-imidazole], the Kb at α1-adrenoceptor was 6.31 µM. Besides, the ED50 at α2-adrenoceptor [3] came out at 0.2 mg/kg.
Take `CCCn1cnc(C2(CC)Cc3ccccc3C2)c1` [compound 3, 4-(2-ethyl-2,3-dihydro-1H-inden-2-yl)-1-n-propyl-1H-imidazole]: the Kb on α1-adrenoceptor was 6.31 µM. Besides, at α2-adrenoceptor [3], the ED50 came out at 0.3 mg/kg.
For `CCC1(c2cn(Cc3ccccc3)cn2)Cc2ccccc2C1` [compound 4, 1-benzyl-4-(2-ethyl-2,3-dihydro-1H-inden-2-yl)-1H-imidazole], at α1-adrenoceptor, the Kb was 1 µM. Besides, on α2-adrenoceptor [3], the ED50 turned out to be 2 mg/kg.
`CCC1(c2cn(C)cn2)Cc2ccccc2C1=O` (stereo not drawn) [compound 5, 2-ethyl-2-(1-methyl-1H-imidazol-4-yl)-1-indanone]: the “Duration of α2-antagonism” value on α2-adrenoceptor [1] came out at 11.0 h. In addition, the Kb at α1-adrenoceptor is greater than 10 µM. For the same molecule, on α2-adrenoceptor [3], the ED50 is 0.1 mg/kg.
`OCC1(c2c[nH]cn2)Cc2ccccc2C1` [compound 6, [2,3-dihydro-2-(1H-imidazol-4-yl)-1H-inden-2-yl]methanol]: the Kb at α1-adrenoceptor was greater than 10 µM. Besides, at α2-adrenoceptor [3], the ED50 is 0.2 mg/kg.
With `COCC1(c2cn(C)cn2)Cc2ccccc2C1` [compound 7, 4-(2,3-dihydro-2-methoxymethyl-1H-inden-2-yl)-1-methyl-1H-imidazole], the “Duration of α2-antagonism” value on α2-adrenoceptor [1] turned out to be 7.0 h. Moreover, the Kb at α1-adrenoceptor was greater than 10 µM. In assay [2], the “Insulin in the perfusate, +1 min” value is 26.0 ng/mL; the “Insulin in the perfusate, +10 min” value turned out to be 11.5 ng/mL; the “Insulin in the perfusate, +20 min” value was determined as 15.9 ng/mL; the “Insulin in the perfusate, +30 min” value amounted to 22.0 ng/mL. The “Insulin in the perfusate, -5 min” value in assay [2] was less than 0.1 ng/mL. The median effective dose (ED50) on α2-adrenoceptor [3] is 0.3 mg/kg.
In the case of `CCCC1(c2cn(CC)cn2)Cc2ccccc2C1` [compound 8, 1-ethyl-4-(2,3-dihydro-2-n-propyl-1H-inden-2-yl)-1H-imidazole], the Kb at α1-adrenoceptor was greater than 10 µM. For the same molecule, the median effective dose (ED50) at α2-adrenoceptor [3] came out at 0.3 mg/kg.
As for `CCCC1(c2cn(C)cn2)Cc2ccccc2C1` [compound 9, 4-(2,3-dihydro-2-n-propyl-1H-inden-2-yl)-1-methyl-1H-imidazole], the Kb on α1-adrenoceptor was greater than 10 µM. The ED50 at α2-adrenoceptor [3] is 0.3 mg/kg.
For the molecule `CCn1cnc(C2(CO)Cc3ccccc3C2)c1` [compound 10, [2-(1-ethyl-1H-imidazol-4-yl)-2,3-dihydro-1H-inden-2-yl]methanol], the “Duration of α2-antagonism” value on α2-adrenoceptor [1] amounted to 7.0 h. Further, at α1-adrenoceptor, the Kb is greater than 10 µM. The ED50 at α2-adrenoceptor [3] is 0.3 mg/kg.
As for `CCn1cnc(C2(COC)Cc3ccccc3C2)c1` [compound 11, 1-ethyl-4-(2,3-dihydro-2-methoxymethyl-1H-inden-2-yl)-1H-imidazole], the “Duration of α2-antagonism” value at α2-adrenoceptor [1] came out at 7.0 h. Further, at α1-adrenoceptor, the Kb was greater than 10 µM. The median effective dose (ED50) on α2-adrenoceptor [3] was 0.1 mg/kg.
`CCn1cnc(C2(CC)Cc3ccccc3C2=O)c1` (stereo not drawn) [compound 12, 2-ethyl-2-(1-ethyl-1H-imidazol-4-yl)-1-indanone]: the “Duration of α2-antagonism” value on α2-adrenoceptor [1] was 16.0 h. Also, on α1-adrenoceptor, the Kb was greater than 10 µM. For the same molecule, the ED50 at α2-adrenoceptor [3] was determined as 0.2 mg/kg.
For the molecule `c1ccc2c(c1)OCC(C1=NCCN1)O2` (stereo not drawn) [idazoxan, reference compound], on α2-adrenoceptor [1], the “Duration of α2-antagonism” value is less than 1 h. Besides, on α1-adrenoceptor, the Kb was 5.01 µM. Besides, the “α2-antagonism (ED50 vs detomidine)” value on α2-adrenoceptor [3] (i.v.) amounted to 0.02 mg/kg.
